Test results: US7109225B2, “Substituted oxazole derivatives” (Hofmann-la Roche Inc., priority 2002, dated 2006)

How the values were obtained:
PPARα [1] = biological target: T1, PPARα (Homo sapiens, UniProt Q07869); assay: Luciferase transcriptional reporter gene assay, BHK21 cells transfected with pFA-PPARα-LBD; assay type: cell-based; parameters: PPARα (aa 167 to 469); expressed in transfected cells; host or cells: BHK21 (ATCC CCL10); settings: Gal4-PPARα-LBD
T1 sequence (Q07869 167-468 limits assumed): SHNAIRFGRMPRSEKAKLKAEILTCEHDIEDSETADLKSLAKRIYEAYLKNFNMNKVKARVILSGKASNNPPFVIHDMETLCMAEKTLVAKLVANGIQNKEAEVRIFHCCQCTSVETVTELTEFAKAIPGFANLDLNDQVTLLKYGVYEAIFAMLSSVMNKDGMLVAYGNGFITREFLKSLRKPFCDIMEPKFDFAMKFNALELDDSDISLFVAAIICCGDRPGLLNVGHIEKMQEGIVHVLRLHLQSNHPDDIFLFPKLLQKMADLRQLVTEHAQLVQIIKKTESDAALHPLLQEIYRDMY
From the text: (§1) Full-length cDNA clones for human PPARα and mouse PPARγ were obtained by RT-PCR from human adipose and mouse liver cRNA, respectively, cloned into plasmid vectors and verified by DNA sequencing. […] To accomplish this, the portions of the cloned sequences encoding the LBDs were amplified from the full-length clones by PCR and then subcloned into the plasmid vectors. Final clones were verified by DNA sequence analysis.
(§2) Luciferase Transcriptional Reporter Gene Assays
(§3) Baby hamster kidney cells (BHK21 ATCC CCL10) were grown in DMEM medium containing 10% FBS at 37° C. in a 95%02:5%CO2 atmosphere. Cells were seeded in 6 well plates at a density of 10^5 Cells/well and then batch-transfected with either the pFA-PPARγ-LBD or pFA-PPARα-LBD expression plasmids plus a reporter plasmid and an expression plasmid encoding the secretable form of alkaline phosphatase (SEAP) as a normalization control. […] Six hours following transfection, the cells were harvested by trypsinization and seeded in 96 well plates at a density of 10^4 cells/well. After 24 hours to allow attachment of cells, the medium was removed and replaced with 100 ul of phenol red-free medium containing the test substances or control ligands (final DMSO concentration: 0.1%). Following incubation of the cells for 24 hours with substances, 50 ul of the supernatant was recovered and analyzed for SEAP activity (Roche Molecular Biochemicals). The remainder of the supernatant was discarded, 50 ul PBS was added per well followed by one volume of Luciferase Constant-Light Reagent (Roche Molecular Biochemicals) to lyse the cells and initiate the luciferase reaction. Luminescence for both SEAP and luciferase was measured in a Packard TopCount. Luciferase activity was normalized to the SEAP control and transcriptional activation in the presence of a test substance was expressed as fold-activation over cells incubated in the absence of the substance. EC50 values were calculated using the XLfit program (ID Business Solutions Ltd. UK).

PPARγ [2] = biological target: T2, PPARγ (Mus musculus, UniProt P37238); assay: Luciferase transcriptional reporter gene assay, BHK21 cells transfected with pFA-PPARγ-LBD; assay type: cell-based; parameters: PPARγ (aa 174 to 476); expressed in transfected cells; host or cells: BHK21 (ATCC CCL10); settings: Gal4-PPARγ-LBD
T2 sequence (P37238 204-505): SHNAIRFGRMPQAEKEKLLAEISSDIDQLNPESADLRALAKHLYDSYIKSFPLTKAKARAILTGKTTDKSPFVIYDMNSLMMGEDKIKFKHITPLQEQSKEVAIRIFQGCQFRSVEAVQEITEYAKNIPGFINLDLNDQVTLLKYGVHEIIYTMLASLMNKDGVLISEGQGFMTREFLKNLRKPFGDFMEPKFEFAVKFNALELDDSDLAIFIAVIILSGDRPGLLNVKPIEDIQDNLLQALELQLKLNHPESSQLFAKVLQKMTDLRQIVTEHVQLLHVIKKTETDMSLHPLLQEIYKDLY
From the text: (§4) Full-length cDNA clones for human PPARα and mouse PPARγ were obtained by RT-PCR from human adipose and mouse liver cRNA, respectively, cloned into plasmid vectors and verified by DNA sequencing. Bacterial and mammalian expression vectors were constructed to produce glutathione-s-transferase (GST) and Gal4 DNA binding domain proteins fused to the ligand binding domains (LBD) of PPARγ (aa 174 to 476) and PPARα (aa 167 to 469). To accomplish this, the portions of the cloned sequences encoding the LBDs were amplified from the full-length clones by PCR and then subcloned into the plasmid vectors. Final clones were verified by DNA sequence analysis.
as §2, §3

PPARγ [3] = biological target: T2, PPARγ; assay: Radioligand binding assay (scintillation proximity), GST-PPARγ-LBD fusion protein; parameters: PPARγ (aa 174 to 476); settings: radioligand binding (SPA)
From the text: Background information on the performed assays can be found in: Nichols J S et al. “Development of a scintillation proximity assay for peroxisome proliferator-activated receptor gamma ligand binding domain”, (1998) Anal. Biochem. 257: 112–119.
as §4
(§5) Induction, expression, and purification of GST-LBD fusion proteins were performed in E. coli strain BL21 (pLysS) cells by standard methods (Ref: Current Protocols in Molecular Biology, Wiley Press, edited by Ausubel et al.).
(§6) Radioligand Binding Assay
PPARγ receptor binding was assayed in TKE50 (50 mM Tris-HCl, pH 8, 50 mM KCl, 2 mM EDTA, 0.1 mg/ml fatty acid-free BSA and 10 mM DTT). For each 96 well reaction an 140 ng equivalent of GST-PPARγ-LBD fusion protein was bound to 10 ug SPA beads (PharmaciaAmersham) in a final volume of 50 ul by shaking. The resulting slurry was incubated for 1 h at RT and centrifuged for 2 min at 1300 g. The supernatant containing unbound protein was removed and the semidry pellet containig the recptor-coated beads was resolved in 50 ul of TKE. For radioligand binding e.g. 10000 dpm 2(S)-(2-benzoyl-phenylamino)-3-{4-[1,1-ditritio-2-(5-methyl-2-phenyl-oxazol-4-yl)-ethoxy]-phenyl}-propionic acid in 50 ul were added, the reaction incubated at RT for 1 h and scintillation proximity counting performed. All binding assays were performed in 96 well plates and the amount of bound ligand measured on a Packard TopCount using OptiPlates (Packard). Nonspecific binding was determined in the presence of 10^−4 M unlabelled compound. Dose response curves were done in triplicates within a range of concentration from 10^−10 M to 10^−4 M.

PPARα [4] = biological target: T1, PPARα; assay: Radioligand binding assay, GST-PPARα-LBD fusion protein; parameters: PPARα (aa 167 to 469)
From the text: as §1, §5, §6
PPARα receptor binding was assayed in TKE10 (10 mM Tris-HCl, pH 8, 50 mM KCl, 2 mM EDTA, 0.1 mg/ml fatty acid free BSA and 10 mM DTT). […]
PPARγ receptor binding was assayed in TKE50 (50 mM Tris-HCl, pH 8, 50 mM KCl, 2 mM EDTA, 0.1 mg/ml fatty acid-free BSA and 10 mM DTT). […] All binding assays were performed in 96 well plates and the amount of bound ligand measured on a Packard TopCount using OptiPlates (Packard). Nonspecific binding was determined in the presence of 10^−4 M unlabelled compound. […]

melting point | EC50 (PPARα [1]) | EC50 (PPARγ [2]) | IC50 (PPARγ [3]) | IC50 (PPARα [4]) | SMILES
159 to 160 °C | 27 nM | 19 nM | 69 nM | – | Cc1oc(C(C)(C)C)nc1CCOc1ccc(CC(OC(C)C)C(=O)O)c2sccc12 (stereo not shown) [Example 8, 3-{4-[2-(2-tert-Butyl-5-methyl-oxazol-4-yl)-ethoxy]-benzo[b]thiophen-7-yl}-2-isopropoxy-propionic acid]
61 to 63 °C | 62 nM | 80 nM | 202 nM | – | CCCOC(Cc1ccc(OCCc2nc(C3CC3)oc2C)c2ccsc12)C(=O)O (stereo not shown) [Example 31, 3-{4-[2-(2-Cyclopropyl-5-methyl-oxazol-4-yl)-ethoxy]-benzo[b]thiophen-7-yl}-2-propoxy-propionic acid]
– | 6 nM | 67 nM | 162 nM | – | CCCOC(Cc1ccc(OCCc2nc(CC(C)(C)C)oc2C)c2ccccc12)C(=O)O (stereo not shown) [Example 33, 3-(4-{2-[2-(2,2-Dimethyl-propyl)-5-methyl-oxazol-4-yl]-ethoxy}-naphthalen-1-yl)-2-propoxy-propionic acid]
103 to 105 °C | 35 nM | 237 nM | 153 nM | 53 nM | CCO[C@@H](Cc1ccc(OCCc2nc(C(C)(C)C)oc2C)c2ccccc12)C(=O)O [Example 1, (S)-3-{4-[2-(2-tert-Butyl-5-methyl-oxazol-4-yl)-ethoxy]-naphthalen-1-yl}-2-ethoxy-propionic acid]
